“And” between values parts separate entries of the source, which are not always exact repeats. Equal values may be shown once.
Target: T1, 5-lipoxygenase (Homo sapiens, UniProt P09917)
T1 construct: endogenous in cells; host or cells: intact leukocytes isolated from human blood
T1 sequence (P09917 1-674): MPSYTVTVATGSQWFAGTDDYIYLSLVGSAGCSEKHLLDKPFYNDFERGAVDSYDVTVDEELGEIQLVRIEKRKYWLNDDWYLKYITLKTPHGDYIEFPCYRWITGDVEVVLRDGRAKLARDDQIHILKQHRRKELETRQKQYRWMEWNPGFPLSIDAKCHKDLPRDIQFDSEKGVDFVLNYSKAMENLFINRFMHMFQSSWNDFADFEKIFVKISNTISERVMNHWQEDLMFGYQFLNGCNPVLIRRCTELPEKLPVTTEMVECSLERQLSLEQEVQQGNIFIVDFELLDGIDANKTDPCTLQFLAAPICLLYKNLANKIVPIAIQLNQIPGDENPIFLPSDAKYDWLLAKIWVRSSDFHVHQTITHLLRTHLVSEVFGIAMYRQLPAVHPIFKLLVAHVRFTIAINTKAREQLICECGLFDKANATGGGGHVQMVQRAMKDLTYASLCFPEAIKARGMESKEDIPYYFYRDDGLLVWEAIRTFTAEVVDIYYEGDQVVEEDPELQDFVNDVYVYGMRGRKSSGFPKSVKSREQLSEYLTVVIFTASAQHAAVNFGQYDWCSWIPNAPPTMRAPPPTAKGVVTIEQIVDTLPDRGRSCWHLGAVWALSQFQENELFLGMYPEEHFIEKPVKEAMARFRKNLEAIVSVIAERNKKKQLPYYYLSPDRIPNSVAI
Test: 5-Lipoxygenase Assay Using Isolated Human Leukocytes (5LOA2)
Format: cell-based
Conditions: 5-HETE formation, HPLC, read-out: Concentration (M) for 50.0 % Inhibition, IC (5LOA2)
Description: 5-Lipoxygenase Assay Using Isolated Human Leukocytes (5LOA2)
The formation of 5-HETE in human leukocytes is considered a measure of 5-lipoxygenase activity. The protocol is described in the following.
Fresh heparinized or EDTA treated human blood is mixed with 6% dextran-3% dextrose in isotonic saline in the ratio 0.25 ml dextran solution per 1.0 ml blood. After mixing the blood is allowed to sit at room temperature for about 90 minutes while the RBC's settle. During this period, the plasma is removed with a plastic pepette to nalgens tubes.
The plasma is centrifuged at 800 rpm ([…]) on the Beckman Td-b refrigerated centrifuge to remove the platelets (which remain in the supernatant). The pellet, consisting of leukocytes and erythrocytes, is treated with 10 ml 0.87% ammonium chloride at room temperature for four minutes, lysing the red cells. At the end of four minutes the cells are diluted with a 2x volume of phosphate buffered saline, pH 7.4, and centrifuged for ten minutes. The cells are washed three times with the phosphate buffered saline. […]
A portion of the ethanol solution is injected into the HPLC system for 5-HETE quantitation.
The HPLC system consists of Hewlett-Packard 1040A UV spectrophotometry system with an HP85 computer. […] Peaks are measured with a Hewlett Packard 3390A integrator. […] The flow is monitored at 235 nm for 5-HETE quantitation. […]

| IC50 | Structure (SMILES) |
| --- | --- |
| 5e-06 M and 4.6e-06 M | O=C(Nc1ccccc1CCc1ccc(Cl)c(Cl)c1)C1=C(O)c2ccccc2S(=O)(=O)C1 [Example 8, N-[2-[2-(3,4-Dichlorophenyl)ethyl]phenyl]-4-hydroxy-2H-1-benzothiopyran-3-carboxamide, 1,1-dioxide] |
| 8.4e-06 M | O=C(Nc1ccccc1Cc1ccc(Cl)c(Cl)c1)C1=C(O)c2ccccc2S(=O)(=O)C1 [Example 81, 2H-1-Benzothiopyran-3-carboxamide, N-[2-[(3,4-dichlorophenyl)methyl]phenyl]-4-hydroxy, 1,1-dioxide] |

— patent US4868195A, “Novel enolamides, pharmaceutical compositions and methods of use thereof for activity as modulators of the arachidonic acid cascade” (Warner-Lambert Company, priority 1988, dated 1989)
